# Residues, ends and D or L forms follow the SMILES beside them. *: point of attachment. Tos = Cc1ccc(S(=O)(=O)*)cc1
row,SMILES,melting point [°C]
1,CCCCCCCCCCC(O)c1ccc2oc([N+](=O)[O-])c(-c3ccccc3)c2c1 (centres undefined),84 to 85
2,CC(O)c1ccc(F)c(-c2ccc3nc(-c4ccc(Cl)cc4)cn3c2)c1 (centres undefined),180 to 182
3,CC(C)(OCc1cc2cc(Cl)ccc2n1S(=O)(=O)c1ccc2c(c1)CCO2)C(=O)O,130 to 132
4,COc1cccc2c(=O)c(SC)coc12,113 to 115
5,COc1ccc(CNC(=O)c2cc3c(=O)n(CCS(=O)(=O)c4ccccc4)c(=O)n(C)c3s2)cc1,118 to 121
6,CCOC(=O)NN(C(=O)OCC)C1(c2ccc3c(c2)OCO3)C(=O)N(Cc2ccc(Cl)cc2)c2ccccc21 (centres undefined),> 220
7,COCCOCOc1c(C(C)(C)C)cc(-c2n[nH]c(=S)s2)cc1C(C)(C)C,134 to 135
8,COC(=O)c1ccc(Cl)c(CN2CCSC2=NC#N)c1Cl,158
9,CNc1ccc(-c2nc3c4ccccc4ccc3n2C)cc1,225 to 227
10,Nc1nc2ccccc2c2c1nc(N)n2Cc1ccccc1,254 to 256
11,Cc1ccc2c(c1)N(CC(=O)NC(C)(C)C)C(=O)C(Br)CC2CC1CCCCC1 (centres undefined),166 to 170
12,CC(C)(NCc1ncc[nH]1)c1ccc(Cl)cc1,164 to 165
13,C=CC1(CC(N)=O)CC(C)(C)CC(C)(C)C1,44 to 46
14,O=[N+]([O-])c1cc(Br)ccc1NCC(F)(F)F,118 to 120
15,CCCOc1ccc(CCC(=O)O)cc1-c1nc2c(C)cccc2c(=O)[nH]1,215 to 216
16,O=C1CCCN1N=c1sc2ccccc2s1,122 to 124
17,CCCCc1oc2ccccc2c1-c1ncc(-c2ccc3c(Br)c(OCc4ccc(C(=O)O)cc4)ccc3c2)o1,281 to 283
18,COC(=O)c1ccc(NC(=O)c2ccccc2-c2ccccc2)cc1,160 to 161
19,COc1ccc2c(c1OC)C(C)NC(=O)N2 (centres undefined),210 to 212
20,Cc1nc2ccc(-c3ccc(OCC4(N)COC4)cc3)nn2c1-c1cnc(N)c(C(F)(F)F)c1,198 to 200
21,O=C(Nc1cc(-c2nnc(Cc3ccccc3)o2)ccn1)c1ccccc1,187 to 189
22,CC(C)N(CCC(CCN(C(C)C)C(C)C)(C(N)=O)c1ccc(Cl)cc1)C(C)C,113 to 115
23,CCOC(=O)c1cn(Cc2cnsn2)c2nc(Cl)c(F)cc2c1=O,175 to 177
24,CCCCc1c(C(=O)C(Cl)(Cl)Cl)c2ccccc2n1C,112 to 115
25,C=CCSc1nc(=O)n(-c2ccsc2)cc1F,125 to 127

row,SMILES,melting point [°C]
1,O=C[C@H]1CC[C@H](SCc2ccc(Cl)cc2)CC1,44 to 46
2,C=CC(=O)Nc1ccc2ncnc(Nc3cccc(Br)c3)c2c1,258 to 261
3,Cc1cc(SC(C)C)c(NC(=O)CCCCCCSc2nc3c(C)c(Cl)cc(C(C)C)c3o2)c(SC(C)C)n1,91 to 93
4,CN1CCN(c2ccccc2C=CC(=O)Nc2ccc(C(F)(F)F)cc2)CC1,207 to 209
5,CC(C)(C)c1cc(OCc2n[nH]c(=O)o2)cc(C(C)(C)C)c1O,138 to 140
6,Cn1c(=O)[nH]c(=O)n(-c2ccc(F)cc2Cl)c1=O,225 to 228
7,COc1ccc(CC(O)c2ccccn2)cc1OC (centres undefined),93 to 94
8,Cc1ccc(-c2ccccc2C(=O)N(C)NC(N)=O)cc1,217 to 218
9,CCOC(=O)C(=CNc1nnn[nH]1)C(=O)c1cc(F)c(Cl)nc1Cl,150 to 152
10,COc1ccc2c(c1)OCCC(C(=O)N1CCN(C(=O)c3cc(OC)c(OC)c(OC)c3)CC1)=C2,133 to 135
11,CSc1[nH]ccc1[N+](=O)[O-],212 to 213
12,OCC1OC(n2c(Cl)c(-c3ccsc3)c3cc(Cl)c(Cl)cc32)CC1O (centres undefined),144 to 145
13,COC(=O)C1=C(C)NC(C)=C(C(=O)OCCN)C1c1cccc(Cl)c1Cl (centres undefined),166 to 167
14,CCSC(C)(C)C(=O)C(C(=O)Nc1cc(NC(=O)CCCOc2ccc(C(C)(C)CC)cc2C(C)(C)CC)ccc1OC)N1C(=O)OC(C)(C)C1=O (centres undefined),155 to 156
15,O=C(NNc1ccccc1)NC1(N=NC2(NC(=O)NNc3ccccc3)CCCCC2)CCCCC1,148 to 151
16,CC(C(O)c1ccc2nc(N)sc2c1)N1CCC(Cc2ccccc2)CC1 (centres undefined),197 to 200
17,O=S(=O)(Cc1ccccc1)N1CCC[C@H]1C(=S)OCCCc1ccccc1,62 to 64
18,NC(=O)c1c(Cl)c(-c2ccccc2)n2c1CN(S(=O)(=O)c1ccncc1)CC2,202 to 204
19,CCC(=O)N(CCc1ccccc1)C1CCc2c(cccc2NC(C)=O)C1 (centres undefined),143 to 145
20,CN(C)C=NC(=S)Nc1ccccc1,139 to 143
21,OC(CCl)(Cc1ccccc1)c1ccc(-c2ccccc2)cc1 (centres undefined),96
22,CC(C)[C@H](NC(=O)N(C)Cc1cscn1)C(=O)N[C@@H](Cc1ccccc1)C[C@H](O)[C@H](Cc1ccccc1)NC(=O)[C@@H](NC(=O)N(C)Cc1cscn1)C(C)C,154 to 156
23,O=C(O)CS(=O)(=O)Oc1cccc(-c2cn3c(n2)sc2ccccc23)c1,156 to 158
24,CCOC(=O)c1cn(N)c2nc(C)ccc2c1=O,173 to 174
25,CCOc1nc(NCc2ccco2)nc(Nc2ccc3[nH]c(C(F)(F)F)nc3c2)n1,188 to 190

row,SMILES,melting point [°C]
1,O=c1c2c([nH]n1-c1ccc(Cl)cc1)-c1cc(Cl)ccc1SC2,237 to 240
2,CCCNC(=O)C(C)(C)N=NC(C)(C)C(=O)NCCC,65
3,CN1C(=S)CSC=C1c1ccccc1,83 to 85
4,Cn1c(=O)c(N)c(N)n(-c2ccc(Cl)cc2Cl)c1=O,170 to 172
5,O=C(CCl)Nc1cccc2[nH]ccc12,114 to 116
6,C=C(C)C(=O)OCCNC(=O)OCCOc1ccccc1-c1ccccc1OCCOC(=O)NCCOC(=O)C(=C)C,72 to 74
7,CS(=O)(=O)Nc1ccc([N+](=O)[O-])cc1N,201 to 204
8,O=C1c2ccccc2COc2ccc(CCN3CCC(n4c(=O)[nH]c5ccccc54)CC3)cc21,116 to 120
9,COc1ccccc1C1(Cl)C(=O)Nc2cc(C(F)(F)F)c(Cl)cc21 (centres undefined),230 to 231
10,O=[N+]([O-])c1ccc2c(c1)Sc1cc(OCCF)ccc1N2,189 to 191
11,O=S(=O)(c1ccccc1)n1cc(CCOC2OC(CO)CC(O)C2O)c2ccccc21 (centres undefined),64 to 65
12,Nc1nc2[nH]c(CCCc3csc(C(=O)O)c3)cc2c(=O)[nH]1,181 to 182
13,CCCCOC(=O)CS(=O)C(C)c1ccc(-c2ccccc2F)cc1 (centres undefined),72 to 74
14,Nc1nc(C(=O)NCCO)cs1,118 to 120
15,Cn1c(C(F)(F)F)cc(=O)[nH]c1=O,140 to 142
16,CCOc1c(C#N)cnc2c(NC(=O)c3c(Cl)cccc3Cl)cccc12,200 to 201
17,CN1CCN(C2NC(=O)c3ccccc32)CC1 (centres undefined),168 to 170
18,N#CC=C1CCN(c2ccc(N3C[C@H](CNC(=O)C(Cl)(Cl)Cl)OC3=O)cc2F)CC1,142 to 144
19,CC(Oc1ccc(Cl)cc1)c1ccnn2cnnc12 (centres undefined),98 to 99
20,C#CCOc1nc(-n2ccnc2)c(I)c(C(F)(F)F)n1,128 to 129
21,CC(C)(C)OC(=O)Nc1ccc(I)cc1N,127 to 130
22,CC(=O)Oc1ccc([C@H]2[C@H](c3ccccc3)C2(Cl)Cl)cc1 (relative stereo),124 to 126
23,O=C(CCl)NCc1ccc(-c2cc3c(Nc4ccc(F)c(Cl)c4)ncnc3[nH]2)cc1,320 to 325
24,O=C(Nc1ccc2nc(CN3CCCCC3)ccc2c1)c1ccc(-c2ccc(Cl)cc2)cc1,211 to 213
25,Clc1ccccc1-c1noc(-c2ccccc2Cl)n1,91 to 92

row,SMILES,melting point [°C]
1,COc1ccc(-n2nc(CCN)cc2-c2ccc(Cl)cc2)cc1,95 to 97
2,CC(C)(C)C(=O)Oc1cc(C=CC(=O)c2ccccc2)cc([N+](=O)[O-])c1O,148 to 150
3,Cc1ccccc1P1(=O)c2ccccc2CN1c1ccccc1 (centres undefined),181 to 183
4,Nc1cccc(Oc2ccc(-c3ccc(Oc4cccc(N)c4)cc3)cc2)c1,144 to 146
5,CCCN1C(=O)CN=C(N2CCCCCC2)c2ccccc21,115 to 118
6,O=C(O)CCc1oc(-n2ccnc2)nc1-c1ccc(Cl)cc1,194 to 195
7,CCCCCCCCCCCc1cc2cc(C(=O)OCC)ccc2[nH]1,76 to 77
8,O=C1NC(=O)C(C2CCCC2)C(=O)N1,222 to 223
9,O=C(O)/C(=C/c1cnc(-c2ccccc2)n1Cc1ccccc1Cl)Cc1ccccc1,211 to 213
10,CC(O)N1CCC(=C2c3ccccc3C=Cc3ccc(S(=O)(=O)C(F)(F)F)cc32)CC1 (centres undefined),141 to 144
11,CN(CCCCCCNC(=O)NCCSCc1csc(NC(=N)N)n1)CCN(Cc1ccc(F)cc1)c1ccccn1,95
12,CCOC(=O)C1C(C)(O)CCC(O)C1(C)C (centres undefined),92 to 94
13,CC(C)=Cc1ccc(-c2c(C(C)C)ccc(CO)c2C(C)C)nc1,93 to 95
14,CC(C)Sc1cc2c3cc(SC(C)C)c(SC(C)C)cc3c3cc(SC(C)C)c(SC(C)C)cc3c2cc1SC(C)C,165 to 168
15,CCCc1sc(-c2nccs2)c2c1C(=O)CC(C)(C)C2,69 to 72
16,CC(C)(O)CCn1c2ccccc2c2cc(NC(=O)c3ccccc3C(F)(F)F)ccc21,188 to 189
17,CCCC1CCC(c2ccc(-c3cc(F)c(C(F)(F)Oc4cc(F)c(C(F)(F)F)c(F)c4)c(F)c3)c(F)c2)OC1 (centres undefined),95
18,CCOC(=O)c1cc2c(=O)c3cc(C(C)=O)ccc3oc2nc1N,> 300
19,C=CCNc1nc(NCC=C)nc(N2CCN(C(=O)NCC(c3ccccc3)c3ccccc3)CC2)n1,90 to 92
20,CCN(CC)CCCNC(=O)Cn1ncc(-c2ccccn2)c1-c1ccccc1,82 to 83
21,CC(=O)c1ccc2c(c1)C(c1ccccc1F)=NC(C)(C)C(=O)N2,59
22,Cc1cc(C)n(-c2nc(NC3Cc4ccccc4C3)cc(N3CCOCC3)n2)n1,66 to 70
23,N#Cc1cc(C(F)(F)F)ccc1Oc1cccc(C(=O)O)c1,224 to 226
24,Cc1ccc(S(=O)(=O)N2CCC[C@H]2C(=O)N[C@@H](CCCCN)C(=O)O)cc1 (Tos-Pro-Lys-OH),> 200

# Reference: a melting point compilation (Tetko et al.; mined from patent text by program, amines drawn as free bases though some values may be those of a salt)
